{"source": "ChEMBL document CHEMBL3988442", "about": "“University of Dundee, Small-Polar-MMV Screening Library” (2021)", "key": {"[1]": {"test": "microbe, parasite or virus in culture", "conditions": "Mycobacterium tuberculosis, 96 h, read-out: pIC50 (converted)"}, "Wolbachia pipientis": {"system": "Wolbachia pipientis", "test": "Anti-Wolbachia Cell-Based Screen", "assay_type": "functional", "conditions": "for IC50: Wolbachia pipientis"}, "[2]": {"test": "microbe, parasite or virus in culture", "conditions": "Mycobacterium tuberculosis, 72 h, read-out: pIC50 (converted)"}, "[3]": {"system": "Mycobacterium tuberculosis", "test": "Cornell M. t heat shock assay", "assay_type": "functional, organism-based", "conditions": "for IC50: Mycobacterium tuberculosis"}, "Histidine--tRNA ligase": {"target": "T1, Histidine--tRNA ligase (Leishmania infantum, UniProt A4I591)", "T1 sequence (A4I591 whole entry)": "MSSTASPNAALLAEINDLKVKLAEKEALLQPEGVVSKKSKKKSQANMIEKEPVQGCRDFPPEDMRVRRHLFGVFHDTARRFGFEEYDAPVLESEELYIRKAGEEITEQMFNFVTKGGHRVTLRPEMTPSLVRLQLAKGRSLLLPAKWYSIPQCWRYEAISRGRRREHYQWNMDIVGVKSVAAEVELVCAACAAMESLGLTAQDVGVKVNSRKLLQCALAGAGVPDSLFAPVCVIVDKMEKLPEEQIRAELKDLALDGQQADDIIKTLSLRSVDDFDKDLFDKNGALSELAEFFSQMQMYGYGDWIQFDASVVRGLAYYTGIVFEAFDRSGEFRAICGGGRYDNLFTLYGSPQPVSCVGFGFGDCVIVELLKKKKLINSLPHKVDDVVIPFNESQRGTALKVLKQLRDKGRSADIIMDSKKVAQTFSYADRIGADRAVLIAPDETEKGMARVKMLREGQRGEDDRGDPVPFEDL", "test": "Leishmania infantum Histidine tRNA synthetase (LdHisRS)", "assay_type": "functional"}, "Lysine--tRNA ligase": {"target": "Lysine--tRNA ligase (Plasmodium falciparum (isolate 3D7), UniProt Q8IDJ8)", "sequence (Q8IDJ8 whole entry)": "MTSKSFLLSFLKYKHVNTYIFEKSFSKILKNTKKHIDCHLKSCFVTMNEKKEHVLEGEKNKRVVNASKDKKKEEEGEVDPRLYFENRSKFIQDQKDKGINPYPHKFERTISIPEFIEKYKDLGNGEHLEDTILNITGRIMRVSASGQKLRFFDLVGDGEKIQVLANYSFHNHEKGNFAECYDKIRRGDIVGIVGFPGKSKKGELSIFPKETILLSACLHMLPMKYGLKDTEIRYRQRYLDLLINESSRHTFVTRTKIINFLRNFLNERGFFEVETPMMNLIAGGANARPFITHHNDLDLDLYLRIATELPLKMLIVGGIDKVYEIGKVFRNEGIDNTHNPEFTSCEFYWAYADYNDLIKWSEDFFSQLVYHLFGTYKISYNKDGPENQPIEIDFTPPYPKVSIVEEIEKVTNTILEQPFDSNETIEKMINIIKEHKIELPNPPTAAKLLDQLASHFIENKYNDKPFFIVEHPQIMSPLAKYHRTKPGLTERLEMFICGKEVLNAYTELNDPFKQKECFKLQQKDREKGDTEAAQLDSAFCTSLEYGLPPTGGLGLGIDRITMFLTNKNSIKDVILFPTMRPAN", "test": "Pf-KRS-1 (Lysyl-RNA Synthetase-1, KRS-1, cytosolic KRS) from Plasmodium falciparum. Inhibitor assay, 384 well plate, luminescence read.", "assay_type": "functional"}}, "note": "Where “and” joins values, the source holds several entries; their conditions need not be identical. Equal values may be shown once."}
{"smiles": "CNc1cc(C)nc(N2Cc3cnn(Cc4ccc(F)cc4)c3C2)n1", "values": [{"measurement": "IC50", "setting": "[1]", "result": 24.2, "unit": "µM"}, {"measurement": "pIC50", "setting": "Wolbachia pipientis", "result": 6.156}, {"measurement": "IC50", "setting": "Wolbachia pipientis", "result": 0.556, "unit": "µM"}, {"measurement": "IC50", "setting": "[2]", "result": 33.6, "unit": "µM"}]}
{"smiles": "O=C1CO[C@H]2CN(Cc3cccc4[nH]ccc34)C[C@@H]2N1C1CCOCC1", "values": [{"measurement": "pIC50", "setting": "[3]", "result": 4.298}, {"measurement": "IC50", "setting": "[3]", "result": "> 100", "unit": "µM"}]}
{"smiles": "Cc1cc(NCc2ccco2)nc2[nH]nc(N)c12", "values": [{"measurement": "IC50", "setting": "[3]", "result": "> 100", "unit": "µM"}]}
{"smiles": "CO[C@H]1CCN(c2nnc(C)s2)C[C@@H]1Cc1cccc(C)c1.O=C(O)C(F)(F)F", "values": [{"measurement": "IC50", "setting": "[1]", "result": 16.7, "unit": "µM"}, {"measurement": "pIC50", "setting": "Wolbachia pipientis", "result": 5.267}, {"measurement": "IC50", "setting": "Wolbachia pipientis", "result": 3.74, "unit": "µM"}, {"measurement": "IC50", "setting": "[2]", "result": 41.7, "unit": "µM"}]}
{"smiles": "Cc1cc(-c2cnc(N3CCCCCC3)nc2-c2cccnc2C)on1", "values": [{"measurement": "pIC50", "setting": "[3]", "result": 4.097}, {"measurement": "IC50", "setting": "[3]", "result": 68.5, "unit": "µM"}]}
{"smiles": "NC(=O)NC(=O)CCN1CCN(c2nccs2)CC1", "values": [{"measurement": "IC50", "setting": "[3]", "result": 35.1, "unit": "µM"}]}
{"smiles": "CC1c2cc(F)ccc2CCN1C(=O)c1[nH]c(=O)[nH]c(=O)c1N", "note": "(stereo not given)", "values": [{"measurement": "IC50", "setting": "[3]", "result": 66.9, "unit": "µM"}]}
{"smiles": "CCNc1cc2c(nn1)CCN(C(=O)c1ccnc(C)n1)C2", "values": [{"measurement": "IC50", "setting": "Wolbachia pipientis", "result": "> 10", "unit": "µM"}, {"measurement": "IC50", "setting": "Histidine--tRNA ligase", "result": "58.6 µM and 51.7 µM"}]}
{"smiles": "CCOc1cccc2c1OCC(=O)N(c1ccc(N(C)C)cc1)C2", "values": [{"measurement": "IC50", "setting": "[3]", "result": 44.1, "unit": "µM"}]}
{"smiles": "Cc1cccc(CNC(Cc2ccsc2)c2nccs2)n1", "note": "(stereo not given)", "values": [{"measurement": "IC50", "setting": "[3]", "result": 49.9, "unit": "µM"}]}
{"smiles": "O=C(c1cncs1)N1CCCC1c1ccn[nH]1", "note": "(stereo not given)", "values": [{"measurement": "IC50", "setting": "[3]", "result": "> 100", "unit": "µM"}]}
{"smiles": "CN1CCN(C(=O)c2cnsn2)c2ccc(F)cc21", "values": [{"measurement": "IC50", "setting": "[3]", "result": 67.4, "unit": "µM"}]}
{"smiles": "Cc1cc(NCc2ccccc2)nc2[nH]nc(N)c12", "values": [{"measurement": "IC50", "setting": "[3]", "result": 79.8, "unit": "µM"}]}
{"smiles": "CN(C)S(=O)(=O)N1CCCCCC1c1cc(-c2ccc(F)cc2)no1", "note": "(stereo not given)", "values": [{"measurement": "pIC50", "setting": "[3]", "result": 4.075}, {"measurement": "IC50", "setting": "[3]", "result": "> 100", "unit": "µM"}]}
{"smiles": "COc1cc(C(=O)Nc2nc(C)no2)cc(Cl)c1OC", "values": [{"measurement": "pIC50", "setting": "[3]", "result": 4.499}, {"measurement": "IC50", "setting": "[3]", "result": 24.8, "unit": "µM"}]}
{"smiles": "Cc1ccc(C(C)N(C)Cc2nc3c(cnn3C)c(=O)[nH]2)s1", "note": "(stereo not given)", "values": [{"measurement": "IC50", "setting": "[3]", "result": "> 100", "unit": "µM"}]}
{"smiles": "CO[C@@H]1CCN(c2nnc(C)s2)C[C@@H]1Cc1cccc(C)c1.O=C(O)C(F)(F)F", "values": [{"measurement": "IC50", "setting": "[1]", "result": 16.3, "unit": "µM"}, {"measurement": "pIC50", "setting": "Wolbachia pipientis", "result": 5.813}, {"measurement": "IC50", "setting": "Wolbachia pipientis", "result": 1.57, "unit": "µM"}, {"measurement": "IC50", "setting": "[2]", "result": 41.6, "unit": "µM"}]}
{"smiles": "Cc1ccsc1CN(c1nc(CCN)nc2ccccc12)C1CC1", "values": [{"measurement": "IC50", "setting": "[3]", "result": 49.6, "unit": "µM"}]}
{"smiles": "CCCn1cc(-c2ccnc(NC3CCCc4ccccc43)n2)c(C)n1", "note": "(stereo not given)", "values": [{"measurement": "IC50", "setting": "[3]", "result": 21.4, "unit": "µM"}]}
{"smiles": "O=C(O)C(F)(F)F.c1cc(-c2ccc3c(c2)CCC32CCN(c3nncs3)CC2)ccn1", "values": [{"measurement": "pIC50", "setting": "Wolbachia pipientis", "result": 5.133}, {"measurement": "IC50", "setting": "Wolbachia pipientis", "result": 5.68, "unit": "µM"}, {"measurement": "IC50", "setting": "Histidine--tRNA ligase", "result": "19.6 µM and 24.9 µM"}]}
{"smiles": "CC(=O)N1CCC[C@@H](NCc2c[nH]c3ccccc23)[C@@H]1c1ccc(C)s1", "values": [{"measurement": "IC50", "setting": "[3]", "result": "> 100", "unit": "µM"}]}
{"smiles": "CCOc1cccc2c1OCC(C(=O)NS(=O)(=O)c1c(C)noc1C)=C2", "values": [{"measurement": "pIC50", "setting": "[3]", "result": "< 4"}, {"measurement": "IC50", "setting": "[3]", "result": 69.3, "unit": "µM"}]}
{"smiles": "CO[C@@H]1CCN(c2nnc(C)s2)C[C@@H]1Cc1ccccc1.O=C(O)C(F)(F)F", "values": [{"measurement": "IC50", "setting": "[1]", "result": 7.95, "unit": "µM"}, {"measurement": "pIC50", "setting": "Wolbachia pipientis", "result": 6.169}, {"measurement": "IC50", "setting": "Wolbachia pipientis", "result": 0.958, "unit": "µM"}, {"measurement": "IC50", "setting": "[2]", "result": 11.3, "unit": "µM"}]}
{"smiles": "CCOc1ccccc1-c1cc(N)[nH]n1", "values": [{"measurement": "IC50", "setting": "[3]", "result": 26.4, "unit": "µM"}]}
{"smiles": "CCCN1CCC(c2cc(CCOc3ccc(C(F)(F)F)cc3)[nH]n2)C1", "note": "(stereo not given)", "values": [{"measurement": "pIC50", "setting": "[3]", "result": "< 4 and 4.339"}]}
{"smiles": "Cn1ccnc1C(NCc1ccc(Br)cc1)c1ccccc1", "note": "(stereo not given)", "values": [{"measurement": "IC50", "setting": "[3]", "result": 17.7, "unit": "µM"}]}
{"smiles": "COc1cc(-c2cc(NC3CCCC3)nc3[nH]ccc23)nc(N)n1", "values": [{"measurement": "IC50", "setting": "[3]", "result": 2.7, "unit": "µM"}]}
{"smiles": "COc1ccc(CC(=O)N(C)c2cccnc2N(C)C)c(Cl)c1", "values": [{"measurement": "pIC50", "setting": "Wolbachia pipientis", "result": 5.287}, {"measurement": "IC50", "setting": "Wolbachia pipientis", "result": 4.83, "unit": "µM"}, {"measurement": "IC50", "setting": "Histidine--tRNA ligase", "result": "19.4 µM and 16.5 µM"}, {"measurement": "IC50", "setting": "Lysine--tRNA ligase", "result": "> 50.1", "unit": "µM"}]}
{"smiles": "CC(C)Cn1nc(-c2ccc(C(=O)O)cc2)cc1-c1ccc(F)cc1", "values": [{"measurement": "IC50", "setting": "[3]", "result": 97.1, "unit": "µM"}]}
{"smiles": "COC(=O)[C@H](CCSC)NC(=O)Cn1ccc2c(Cl)cccc21", "values": [{"measurement": "IC50", "setting": "[3]", "result": 70.7, "unit": "µM"}]}
{"smiles": "CCC(NC(=O)Nc1ccc(OC)c(C)c1)c1ccncc1", "note": "(stereo not given)", "values": [{"measurement": "IC50", "setting": "[3]", "result": 49.9, "unit": "µM"}]}
{"smiles": "Cc1[nH]ccc1C(=O)N1CCOCC12CCCC2", "values": [{"measurement": "IC50", "setting": "[3]", "result": "> 100", "unit": "µM"}]}
{"smiles": "Cc1ccc(C2CCCN2S(=O)(=O)N(C)CCc2ccccn2)o1", "note": "(stereo not given)", "values": [{"measurement": "IC50", "setting": "[3]", "result": "> 100", "unit": "µM"}]}
{"smiles": "Cc1cc(C)cc(CNC(c2ccccc2)c2nccn2C)c1", "note": "(stereo not given)", "values": [{"measurement": "IC50", "setting": "[3]", "result": 4.29, "unit": "µM"}]}
{"smiles": "Cc1cnn(CC2CCCN2Cc2nc3ccccc3c(=O)[nH]2)c1", "note": "(stereo not given)", "values": [{"measurement": "IC50", "setting": "[3]", "result": 17.9, "unit": "µM"}]}
{"smiles": "N#Cc1ccc(N2CCCC3(CCN(c4cccnc4)CC3)C2)cc1.O=C(O)C(F)(F)F", "values": [{"measurement": "pIC50", "setting": "Wolbachia pipientis", "result": "6.279 and 5.873"}, {"measurement": "IC50", "setting": "Histidine--tRNA ligase", "result": "24.6 µM and 24.2 µM"}]}
{"smiles": "c1ccc2nc(CN3CCCC3c3noc(C4CC4)n3)ccc2c1", "note": "(stereo not given)", "values": [{"measurement": "IC50", "setting": "[3]", "result": 23.8, "unit": "µM"}]}
{"smiles": "CSc1ccc(CNC(c2ccc(F)cc2)c2nccn2C)cc1", "note": "(stereo not given)", "values": [{"measurement": "IC50", "setting": "[3]", "result": 32.5, "unit": "µM"}]}
{"smiles": "CCCNC(=O)C(C)n1nc(-c2ccc(C)o2)cc(N)c1=O", "note": "(stereo not given)", "values": [{"measurement": "IC50", "setting": "[3]", "result": "> 100", "unit": "µM"}]}
{"smiles": "CC(Cn1cccn1)NCc1csc(COc2ccc(F)cc2)n1", "note": "(stereo not given)", "values": [{"measurement": "IC50", "setting": "[3]", "result": 17.2, "unit": "µM"}]}
{"smiles": "CSc1ccc(CNC(c2ccccc2F)c2nccn2C)cc1", "note": "(stereo not given)", "values": [{"measurement": "IC50", "setting": "[3]", "result": 16.4, "unit": "µM"}]}
